Consider one molecule from PMC12412615, “Tailored SirReal-type inhibitors enhance SIRT2 inhibition through ligand stabilization and disruption of NAD^+ co-factor binding” (RSC Medicinal Chemistry, 2025).

One assay concerns the target T1, human SIRT3 (Homo sapiens, UniProt Q9NTG7).
T1 construct: purchased Reaction Biology Corporation (Malvern, USA), contract assay
T1 sequence (Q9NTG7 1-399): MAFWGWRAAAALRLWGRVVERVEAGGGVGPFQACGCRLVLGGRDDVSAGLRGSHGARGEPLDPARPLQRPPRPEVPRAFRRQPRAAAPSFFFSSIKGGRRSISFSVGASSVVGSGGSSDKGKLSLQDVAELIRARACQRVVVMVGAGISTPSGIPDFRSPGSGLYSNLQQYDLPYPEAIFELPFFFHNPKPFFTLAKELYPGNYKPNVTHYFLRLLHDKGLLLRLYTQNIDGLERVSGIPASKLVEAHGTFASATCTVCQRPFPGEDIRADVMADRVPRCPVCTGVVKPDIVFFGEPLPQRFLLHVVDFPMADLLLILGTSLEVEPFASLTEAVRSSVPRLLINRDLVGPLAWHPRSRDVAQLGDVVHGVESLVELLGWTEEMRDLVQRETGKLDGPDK
Description: Fluorescence-based sirtuin subtype selectivity assay, SIRT3, single dose 50 μM. The format is biochemical. The note with it: 50 μM compound; mean, n = 2. The method, then: IC50 values against SIRT2 are given as mean with standard deviations (n = 3). Inhibition percentages at 50 μM for SIRT1, 3 and 5 are given as mean without standard deviations (n = 2)
The determination of subtype selectivity against SIRT1, 3 and 5 was performed by measuring the residual enzyme activity after treatment with the corresponding inhibitor at a fixed concentration of 50 μM and subsequent calculation of the percentage inhibition.
(§1) The determination of inhibitory activity on the corresponding sirtuin enzymes was carried out based on a fluorescence-based assay commissioned by Reaction Biology Corporation (Malvern, USA) following an internal experimental protocol. Test substances were prepared in DMSO, delivered into the respective enzyme mixture (prepared with reaction buffer: Tris-HCl, pH = 8) and incubated for 10 minutes at 30 °C. Subsequently the substrate mixture (NAD^+ and a 7-amino-4-methylcoumarin-based fluorogenic peptide substrate) was added to initiate the deacetylation reaction. After 2 hours incubation at 30 °C, 2 mM nicotinamide (universal sirtuin inhibitor, to stop the reaction) and protease-based developer (to generate fluorescence by the cleavage of 7-amino-4-methylcoumarin) was added. At 30 °C 1 hour later, the respective fluorescence was measured (extinction/emission = 360 nm/460 nm). The inhibitory effect of the test compounds is indirectly proportional to the amount of converted fluorescent substrate standardized as 100% activity of the control without inhibitor. The test substances were tested in 10-dose IC50 triplicate mode, with 3-fold serial dilution starting at 50 μM final reaction concentration and if necessary, starting at 100 μM. For each serially diluted replicate of the triplicate, an IC50 value was determined by sigmoidal curve fitting, resulting in three IC50 values, from which the mean and corresponding standard deviation were subsequently calculated. Data processing was performed based on Prism 8.0.2 software (GraphPad Software, Boston, USA). Subtype selectivity on SIRT1, SIRT3 and SIRT5 was evaluated in a single dose duplicate mode at 50 μM final test compound concentration according to previous outlined internal protocol of Reaction Biology Corporation by determining the enzyme activity of the respective sirtuins in % (no inhibitor control as 100% activity).

Another assay deals with T2, SIRT2 (Homo sapiens, UniProt Q8IXJ6).
T2 sequence (Q8IXJ6 1-389): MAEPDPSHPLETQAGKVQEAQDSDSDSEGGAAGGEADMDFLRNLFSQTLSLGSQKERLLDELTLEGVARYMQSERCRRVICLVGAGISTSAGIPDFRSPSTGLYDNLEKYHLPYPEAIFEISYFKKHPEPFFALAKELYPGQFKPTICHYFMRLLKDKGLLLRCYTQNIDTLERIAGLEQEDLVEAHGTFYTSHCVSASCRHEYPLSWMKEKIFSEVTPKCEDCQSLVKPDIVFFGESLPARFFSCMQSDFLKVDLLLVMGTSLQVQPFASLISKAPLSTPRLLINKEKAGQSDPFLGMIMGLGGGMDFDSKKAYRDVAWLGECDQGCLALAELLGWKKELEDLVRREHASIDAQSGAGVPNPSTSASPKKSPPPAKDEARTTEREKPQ
The experiment in a line: Fluorescence-based SIRT2 deacetylation inhibition assay (Reaction Biology Corporation). The class given is biochemical. Details: purchased Reaction Biology Corporation (Malvern, USA), contract assay. The method, then: The determination of SIRT2 inhibitory activity was performed by Reaction Biology Corporation (Malvern, USA) with a fluorescence-based assay utilizing the fluorogenic peptide of p53 residues 379–382 (RHKK(Ac)-Fl). […]. […] […]. On the contrary, we observed a significant increase in potency by the introduction of halogens at the R^2 position (compounds 29–31), highlighting the importance of the position of the functional group modifications. […]. […] Additional factors such as the atomic radius and thus steric requirements of these halogens may also play a significant role in the increase in potency, where the smaller chlorine atom may experience less steric effects upon binding at the active site compared to the larger bromine and iodine atoms. […]. […] IC50 values against SIRT2 are given as mean with standard deviations (n = 3). Inhibition percentages at 50 μM for SIRT1, 3 and 5 are given as mean without standard deviations (n = 2)
as §1

As usually defined, the inhibition is the drop in the measured response relative to a control, in per cent. By IC50 is commonly meant the concentration that inhibits the measured activity by half. High values mean lower potency, low ones higher potency. `Cc1cc(C)nc(SCC(=O)Nc2cccc(COc3ccc(NC(=O)c4cnn(C)c4)c(Cl)c3)c2)n1` [Compound 29, N-(2-Chloro-4-((3-(2-((4,6-dimethylpyrimidin-2-yl)thio)acetamido)benzyl)oxy)phenyl)-1-methyl-1H-pyrazole-4-carboxamide]: the inhibition at 50 µM at human SIRT3 was determined as 26%. Further, the “Fold increase in SIRT2 potency compared to lead structure” value at SIRT2 (29 vs 24a, 46 vs SirReal2) was found to be 3 fold. The molecule further showed an IC50 on SIRT2 (fluorogenic peptide of p53 residues 379–382 (RHKK(Ac)-Fl), mean with standard deviation, n = 3) of 26 ± 2 nM.
